{
  "source": "patent US10813920B2",
  "about": "“Drug for treating corneal endothelium by promoting cell proliferation or inhibiting cell damage” (THE DOSHISHA, priority 2013, dated 2020)",
  "key": {"[1]": {"tested_on": "human corneal endothelial cells", "assay": "IL-6 production by RT-PCR and ELISA", "type": "cell-based", "settings": "10 μM, cultured for 20 days", "method": "*PCR: PCR was carried out on each laminin chain and integrin chain by RT-PCR (reverse transcription polymerase chain reaction). A primer was purchased from the oligonucleotide synthesis company INVITROGEN and then desalinized for use. RNEasy Mini Kit (QIAGEN, catalog number: 74106) was used for extracting the entire RNA from cells. The Descemet's membrane including corneal endothelial cells were peeled off from a cornea for research purchased from the Seattle Eye Bank and the corneal endothelial cells were mechanically peeled off with the basal membrane for use in RNA extraction from the corneal endothelial cells. […]\nElectrophoresis is applied to an amplified DNA fragment with 1.5% agarose gel (Nacalai Tesque, catalog number: 01149-76) and the fragment was detected by staining with ethidium bromide (Nacalai Tesque, catalog number: 14603-51).\n*The amount of IL-6 expression of human corneal endothelial cells was quantified by RT-PCR by the following method. […] The reaction was stopped with 1M sulfuric acid to measure the absorbance at 450 nm with a plate reader. […] The amount of IL-6 protein in a culture supernatant collected after 7 days was quantified in accordance with the manual of DuoSetELISA human IL-6 (R & D Cat # DY206). […]"}, "p38 MAP kinase signal": {"tested_on": "p38 MAP kinase signal", "assay": "Western blotting of phosphorylated ATF2, downstream molecule of p38 MAP kinase signal", "type": "cell-based, human", "settings": "Western blotting after 20 days from stimulation; 10 μM and 30 μM", "method": "*Human corneal endothelial cells (HCEC, where the cells were obtained and culturing method thereof): HCEC was cultured as follows. In short, Descemet's membrane including corneal endothelial cells was peeled off from a corneal for research purchased from the Seattle Eye Bank, and the corneal endothelial cells were mechanically peeled off with a basal membrane. […] Specifically, after digestion at 37° C., HCEC obtained from individual corneas was resuspended in a culture medium and plated on a well of a 12-well plate coated with FNC Coating Mix®. The culture medium was prepared in accordance with a partially-modified disclosed protocol. In short, a basal cultural medium containing OptiMEM-I (Life Technologies), 8% FBS, 5 ng/mL of epithelial growth factor (EGF) (Sigma-Aldrich Co., St. Louis, Mo.), 20 μg/mL of ascorbic acid (Sigma-Aldrich), 200 mg/L calcium chloride (Sigma-Aldrich), 0.08% chondroitin sulfate (Wako Pure Chemical Industries, Osaka) and 50 μg/mL of gentamicin was prepared and an acclimated medium was collected after inactivated 3T3 fibroblasts were cultured. The 3T3 fibroblasts were inactivated as previously described. […] Immunostaining was applied to the cells for observation with a fluorescence microscope. […]"}},
  "data": [
    {"smiles": "C[S+]([O-])c1ccc(-c2nc(-c3ccncc3)c(-c3ccc(F)cc3)[nH]2)cc1", "note": "(stereo not drawn) [SB203580, 4-(4-fluorophenyl)-2-(4-methylsulfinylphenyl)-5-(4-pyridyl)-1H-imidazole]", "values": [
      {"measurement": "IL-6 production (PCR)", "setting": "[1]; RT-PCR", "result": "decreases relative to the control"},
      {"measurement": "IL-6 production (ELISA)", "setting": "[1]; supernatant collected after 7 days", "result": "decreases relative to the control"},
      {"measurement": "phosphorylation of ATF2", "setting": "p38 MAP kinase signal", "result": "suppressed"}
    ]}
  ]
}
